pIC50: −log10 of the molar value. Where two headings read alike, the source gives them in different places.
Columns and labels:
MX-1 (breast carcinoma) = assay: Cytotoxicity/growth inhibition assay, MX-1; format: cell-based, human; conditions: read-out: IC50 (MX-1)
Summary of the method: (§1)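 Test compounds in DMSO (0.1–200 μM; final DMSO 0.5%) added to freshly diluted cells (3×10^3 cells/mL MX-1 and DLD-1, 6×10^3 cells/mL LNCap), triplicate wells. Cultured ~three doubling times (3 days MX-1, 4 days DLD-1/LNCap). CellTiter-Glo luminescence, 15 min room temperature; growth expressed as % of DMSO solvent control.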

[1] = tested on: DLD-1 (colorectal adenocarcinoma); assay: Cytotoxicity/growth inhibition assay, DLD-1; format: cell-based, human; conditions: read-out: IC50 (DLD-1)
Summary of the method: as §1

[2] = tested on: MX-1 (human breast cancer) tumor; assay: MX-1 xenograft assay, intraperitoneal administration; format: in vivo, athymic nu/nu mice; conditions: for activity in MX-1 xenograft assay / tumor growth inhibition compared to vehicle: 100 mg/Kg intraperitoneal once/day for 5, 9, or 14 days
Protocol: (§2) Female athymic nu/nu mice (Harlan, Indianapolis, Ind., U.S.A. or similar vendor), 6-8 weeks old (approximately 20 g), were implanted in the mammary fat pad of the right fore flank with 20-30 mg pieces of MX-1 (human breast cancer) tumor harvested from similar mice that had previously been implanted with the MX-1 tumor. Approximately 7-10 days after tumor transplantation, when the tumor weight was approximately 50-200 mg, the mice were assigned to treatment groups. […] All compounds were active in this assay, with tumor growth inhibition compared to vehicle between 5% (compound 171A) and 99% (compound 13A), with most compounds causing at least 30% tumor growth inhibition. […] Compound 13A was tested at 25, 50, or 100 mg/Kg for 5 or 9 days, causing tumor inhibition between 19% (25 mg/Kg for 5 days) and 99% (100 mg/Kg for 9 days). Compound 70A was tested at 50, 100, and 150 mg/Kg for 5 or 12 days, causing tumor inhibition between 16% (50 mg/Kg for 5 days) and 95% (150 mg/Kg for 12 days).

[3] = tested on: HCT116 (human colon cancer) tumor; assay: HCT116 xenograft assay, intraperitoneal administration; format: in vivo, athymic nu/nu mice; conditions: for inhibition of tumor growth compared to vehicle: 100 mg/Kg intraperitoneal once/day for 11 days, measured 13 days after start; for activity in HCT116 xenograft assay: intraperitoneal once/day for 11 days
Protocol: Male athymic nu/nu mice, 6-8 weeks old (approximately 20 g), were implanted subcutaneously in the right fore flank with 20-30 mg pieces of HCT116 (human colon cancer) tumor harvested from similar mice that had previously been implanted with the HCT116 tumor. Approximately 7-10 days after tumor transplantation, when the tumor weight was approximately 50-200 mg, the mice were assigned to treatment groups. Groups of mice were treated with compounds 5A or 13A at 100 mg/Kg, or compound 70A at 150 mg/Kg, by intraperitoneal injection once/day for 11 days, with vehicle control. Tumor growth inhibition was measured 13 days after the start of treatment.

[4] = tested on: LNCap (prostate carcinoma); assay: Cytotoxicity/growth inhibition assay, LNCap; format: cell-based, human; conditions: read-out: IC50 (LNCap)
Summary of the method: as §1

[5] = tested on: MX-1 (human breast cancer) tumor; assay: MX-1 xenograft assay, oral administration; format: in vivo, athymic nu/nu mice
Protocol: as §2
A study similar to that described in In vivo Example 1 was performed using oral administration of compounds 13A and 70A. Groups of mice were treated with compound 13A at 50, 100, or 300 mg/Kg, or compound 70A at 100, 150, 200, or 250 mg/Kg, by gavage once/day for 5 days (with vehicle control). Tumor growth inhibition was measured 13 days after the start of treatment.

[6] = tested on: MiaPaCa-2 (human pancreatic cancer) tumor; assay: MiaPaCa-2 xenograft assay, intraperitoneal administration; format: in vivo, athymic nu/nu mice; conditions: 100 mg/Kg intraperitoneal once/day for 14 days
Protocol: Male athymic nu/nu mice, 6-8 weeks old (approximately 20 g), were implanted subcutaneously in the right fore flank with 20-30 mg pieces of MiaPaCa-2 (human pancreatic cancer) tumor harvested from similar mice that had previously been implanted with the MiaPaCa-2 tumor. Approximately 7-10 days after tumor transplantation, when the tumor weight was approximately 50-200 mg, the mice were assigned to treatment groups. Groups of mice were treated with compound 13A or 70A at 100 mg/Kg by intraperitoneal injection once/day for 14 days, with vehicle control. Tumor growth inhibition was measured 15 days after the start of treatment.

[7] = tested on: MiaPaCa-2 (human pancreatic cancer) tumor; assay: MiaPaCa-2 xenograft assay, oral administration; format: in vivo, athymic nu/nu mice; conditions: 200 mg/Kg for 7 days
[8] = MX-1 cells, 3 days culture, CellTiter-Glo, 0.1-200 μM tested
[9] = DLD-1 cells, 4 days culture, CellTiter-Glo, 0.1-200 μM tested
[10] = LNCap cells, 4 days culture, CellTiter-Glo, 0.1-200 μM tested

| Compound | pIC50 (MX-1 (breast carcinoma); [8]) | pIC50 [1, 9] | activity in MX-1 xenograft assay [2] | pIC50 [4, 10] | also measured |
| --- | --- | --- | --- | --- | --- |
| CCCCS(=O)(=O)CCOP(=O)(N(CCCl)CCCl)N(CCCl)CCCl [Compound 5A] | 4.84 | 5.18 | active | 4.37 | inhibition of tumor growth compared to vehicle [3]: 10%; activity in HCT116 xenograft assay [3]: active |
| CNC(=O)CS(=O)(=O)CCOP(=O)(N(CCCl)CCCl)N(CCCl)CCCl [Compound 13A, N-methyl-2-[[2-[[bis[bis(2-chloroethyl)amino]phosphinyl]oxy]ethyl]sulfonyl]acetamide] |  |  | active |  | inhibition of tumor growth compared to vehicle ([5]; 50 mg/Kg gavage once/day for 5 days, measured 13 days after start): 63%; inhibition of tumor growth compared to vehicle ([5]; 300 mg/Kg gavage once/day for 5 days, measured 13 days after start): 100%; activity in MX-1 xenograft assay, oral ([5]; gavage once/day for 5 days): active; dose dependence of tumor inhibition, oral ([5]; gavage once/day for 5 days, measured 13 days after start): dose-dependent tumor inhibition; pIC50 (MX-1 (breast carcinoma); Homo sapiens, MX1, 72 h): 4.93; pIC50 ([1]; Homo sapiens, DLD-1, 96 h): 5.15; tumor growth inhibition compared to vehicle [2]: 99%; tumor inhibition ([2]; intraperitoneal, 25 mg/Kg for 5 days): 19%; tumor inhibition ([2]; intraperitoneal, 100 mg/Kg for 9 days): 99%; dose dependence of tumor inhibition ([2]; intraperitoneal, range of doses and treatment times): dose-dependent tumor inhibition; inhibition of tumor growth compared to vehicle [3]: 43%; activity in HCT116 xenograft assay [3]: active; activity in MiaPaCa-2 xenograft assay [6]: active; inhibition of tumor growth compared to vehicle ([6]; measured 15 days after start): 78%; pIC50 ([4]; Homo sapiens, LNCaP, 96 h): 4.27; activity in MiaPaCa-2 xenograft assay, oral [7]: active; inhibition of tumor growth [7]: 82% |
| O=C(CS(=O)(=O)CCOP(=O)(N(CCCl)CCCl)N(CCCl)CCCl)N[C@@H](Cc1ccccc1)C(=O)O [Compound 15A, N-{2-[[2-[[bis[bis(2-chloroethyl)amino]phosphinyl]oxy]ethyl]sulfonyl]acetyl}-L-phenylalanine] |  |  | active |  | pIC50 (MX-1 (breast carcinoma); Homo sapiens, MX1, 72 h): 4.63; pIC50 ([1]; Homo sapiens, DLD-1, 96 h): 4.86; pIC50 ([4]; Homo sapiens, LNCaP, 96 h): ≤ 3.70 |
| O=C(CS(=O)(=O)CCOP(=O)(N(CCCl)CCCl)N(CCCl)CCCl)NCCN1CCOCC1 [Compound 23A] | 4.59 | 5.18 | active | 4.32 |  |
| N#CCNC(=O)c1ccc(CS(=O)(=O)CCOP(=O)(N(CCCl)CCCl)N(CCCl)CCCl)cc1 [Compound 164A] | 4.97 | 5.24 |  | 4.34 |  |
| O=C(c1ccc(CS(=O)(=O)CCOP(=O)(N(CCCl)CCCl)N(CCCl)CCCl)cc1)N1CCC(O)C1 (stereo not drawn) [Compound 165A] | 4.66 | 5.10 |  | 3.94 |  |
| O=C(c1ccc(CS(=O)(=O)CCOP(=O)(N(CCCl)CCCl)N(CCCl)CCCl)cc1)N1CCC(O)CC1 [Compound 166A] | 4.69 | 5.20 |  | 4.04 |  |
| CNC(=O)c1ccc(CS(=O)(=O)CCOP(=O)(N(CCCl)CCCl)N(CCCl)CCCl)cc1 [Compound 168A] | 5.10 | 5.24 |  | 4.62 |  |
| O=C(c1ccc(CS(=O)(=O)CCOP(=O)(N(CCCl)CCCl)N(CCCl)CCCl)cc1)N(CCO)CCO [Compound 169A] | 4.46 | 5.12 |  | 3.84 |  |
| NC(=O)C1CCN(C(=O)c2ccc(CS(=O)(=O)CCOP(=O)(N(CCCl)CCCl)N(CCCl)CCCl)cc2)CC1 [Compound 170A] | 4.50 | 4.97 |  | ≤ 3.70 |  |
| O=C(c1ccco1)C1CCN(C(=O)c2ccc(CS(=O)(=O)CCOP(=O)(N(CCCl)CCCl)N(CCCl)CCCl)cc2)CC1 [Compound 171A] | 5.21 | 5.21 | active | 4.56 | tumor growth inhibition compared to vehicle [2]: 5% |
| CCOC(=O)CNC(=O)c1ccc(CS(=O)(=O)CCOP(=O)(N(CCCl)CCCl)N(CCCl)CCCl)cc1 [Compound 172A, α-[[2-[[bis[bis(2-chloroethyl)amino]phosphinyl]oxy]ethyl]sulfonyl]-4-[(ethoxycarbonylmethyl)-aminocarbonyl]toluene] |  |  | active |  | pIC50 (MX-1 (breast carcinoma); Homo sapiens, MX1, 72 h): 5.32; pIC50 ([1]; Homo sapiens, DLD-1, 96 h): 5.21; pIC50 ([4]; Homo sapiens, LNCaP, 96 h): 4.50 |
| O=C(NCc1cccnc1)c1ccc(CS(=O)(=O)CCOP(=O)(N(CCCl)CCCl)N(CCCl)CCCl)cc1 [Compound 174A] | 4.73 | 4.84 |  | 4.25 |  |
| O=C(NCCCN1CCOCC1)c1ccc(CS(=O)(=O)CCOP(=O)(N(CCCl)CCCl)N(CCCl)CCCl)cc1 [Compound 175A] | 4.74 | 4.96 |  | 4.19 |  |
| O=C(c1ccc(CS(=O)(=O)CCOP(=O)(N(CCCl)CCCl)N(CCCl)CCCl)cc1)N1CCN(c2ccccn2)CC1 [Compound 176A] | 5.19 | 5.31 |  | 4.54 |  |
| O=C(c1ccc(CS(=O)(=O)CCOP(=O)(N(CCCl)CCCl)N(CCCl)CCCl)cc1)N1CCN(Cc2ccccc2)CC1 [Compound 177A] | 5.06 | 5.35 |  | 4.68 |  |
| O=P(OCCS(=O)(=O)Cc1ccco1)(N(CCCl)CCCl)N(CCCl)CCCl [Compound 179A] | 5.14 | 5.12 |  | 4.59 |  |
| O=P(OCCS(=O)(=O)Cc1cccs1)(N(CCCl)CCCl)N(CCCl)CCCl [Compound 180A] | 5.03 | 5.31 | active | 4.77 |  |
| O=P(OCCS(=O)(=O)Cc1ccccn1)(N(CCCl)CCCl)N(CCCl)CCCl [Compound 181A] | 5.08 | 5.13 |  | 4.58 |  |
| O=P(OCCS(=O)(=O)Cc1cccc[n+]1[O-])(N(CCCl)CCCl)N(CCCl)CCCl [Compound 182A] | 5.10 | 5.15 |  | 4.65 |  |
| Cc1ncc(CS(=O)(=O)CCOP(=O)(N(CCCl)CCCl)N(CCCl)CCCl)c(CO)c1O [Compound 183A] | 4.74 | 5.31 |  | 4.38 |  |
| Cc1c(O)c(CO)c(CS(=O)(=O)CCOP(=O)(N(CCCl)CCCl)N(CCCl)CCCl)c[n+]1[O-] [Compound 184A] | 4.54 | 5.28 |  | 4.02 |  |

Source: patent publication US8093231B2, “Sulfonylethyl phosphorodiamidates” (Telik, Inc., priority 2004, dated 2012)
